Test results taken from PubChem BioAssay (NCI).
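48-hour exposure; five concentrations; linearly interpolated endpoints. TGI: total growth inhibition.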

How the values were obtained:
Test in all cases: NCI tumour cell line growth inhibition, 48 h
[1] = system: DMS 273 small cell lung
[2] = system: KM20L2 colon
[3] = system: LXFL 529 NSCLC
[4] = system: M19-MEL melanoma
[5] = system: RXF-631 renal

SMILES: COC1CC(CC2CCC(C)C(C(C)C(=O)O)O2)OC2(OC(C)(C3CCC(C)(C4OC(C5OC(O)(CO)C(C)CC5C)CC4C)O3)CC2C)C1C (stereo not given)
- TGI [1]: 10.4 µM
- TGI [2]: 11 µM
- TGI [3]: 4.02 µM
- TGI [4]: 2.18 µM
- TGI [5]: 12.9 µM

SMILES: COc1ccc(C2c3cc4c(cc3OC(O)(CO)C2C(=O)O)OCO4)cc1 (stereo not given) (tested in a mixture with another compound)
- TGI [1]: 17.7 µM
- TGI [2]: > 100 µM
- TGI [3]: 31.1 µM
- TGI [4]: 21.3 µM
- TGI [5]: 42.9 µM

SMILES: CC(=O)Oc1ccc(CO)cc1OC(C)=O
- TGI [1]: > 100 µM
- TGI [2]: > 100 µM
- TGI [3]: > 100 µM
- TGI [4]: > 100 µM
- TGI [5]: > 100 µM

SMILES: CCOC(=O)C(=O)NCCCN1CCOCC1
- TGI [1]: > 100 µM
- TGI [2]: > 100 µM
- TGI [3]: > 100 µM
- TGI [4]: > 100 µM
- TGI [5]: > 100 µM
